The source of these data is article PMC3375280 (PLoS ONE, 2012).

The target in assay [1] is T1, AT1 V108A mutant receptor (Rattus norvegicus, UniProt P25095, V108A).
T1 construct: expressed in transfected cells; host or cells: COS1
T1 sequence (P25095 1-359 V108A): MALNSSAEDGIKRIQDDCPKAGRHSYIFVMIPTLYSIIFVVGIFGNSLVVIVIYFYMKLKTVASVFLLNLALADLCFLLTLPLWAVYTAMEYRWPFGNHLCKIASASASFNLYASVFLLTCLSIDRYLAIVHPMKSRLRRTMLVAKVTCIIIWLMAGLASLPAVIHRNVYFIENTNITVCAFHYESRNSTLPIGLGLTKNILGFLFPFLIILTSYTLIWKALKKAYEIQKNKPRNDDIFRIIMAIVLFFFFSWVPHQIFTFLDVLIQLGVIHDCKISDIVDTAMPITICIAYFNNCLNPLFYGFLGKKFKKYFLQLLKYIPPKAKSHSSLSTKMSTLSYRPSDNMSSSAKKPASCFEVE
The experiment in a line: competition binding, V108A mutant. The conditions noted are these: for Kd ratio relative to WT (in parentheses): V108A / WT; for Kd: V108A, COS1 membranes, read-out: Binding affinity (Kd). As for the experimental part:
(§1) The Kd and Bmax values of receptor binding were determined by ^125I-[Sar^1, Ile^8] […] Membranes expressing the WT or mutant AT1 receptors were incubated with 100 pM ^125I-[Sar^1, Ile^8] […] The binding reaction was terminated by filtering the incubation mixture through Whatman GF/C glass filters, and the residues were extensively washed further with binding buffer. The bound ligand fraction was determined from the counts per minute (cpm) remaining on the membrane. Binding kinetics values were determined as previously described.

The target of assay [2] is T2, AT1 wild-type (WT) receptor (Rattus norvegicus, UniProt P25095).
T2 construct: expressed in transfected cells; host or cells: COS1
T2 sequence (P25095 1-359): T1 sequence (P25095 1-359 V108A) with A108V
Kind of assay: 125I-[Sar1,Ile8]AngII competition binding, wild-type receptor. Conditions: for Kd / Kd ratio relative to olmesartan (in parentheses): WT; for Kd: COS1 cell membranes, 100 pM 125I-[Sar1,Ile8]AngII, 1 h 22°C, read-out: Binding affinity (Kd); for Kd ratio relative to olmesartan (in parentheses): compound Kd / olmesartan Kd. As for the experimental part:
as §1

Assay [3] deals with T3, AT1 C76A/A114C/C289A mutant receptor (Rattus norvegicus, UniProt P25095, A114C/C289A/C76A).
T3 construct: expressed in transfected cells; host or cells: COS1 cells (membranes)
T3 sequence (P25095 1-359 C76A/A114C/C289A): T1 sequence (P25095 1-359 V108A) with C76A, A108V, A114C, C289A
The experiment in a line: competition binding, C76A/A114C/C289A mutant. The conditions noted are these: for Kd ratio relative to WT (in parentheses): C76A/A114C/C289A / WT; for Kd: C76A/A114C/C289A, COS1 membranes, read-out: Binding affinity (Kd). Here is the method: as §1

For assay [4], the target named is T4, AT1 C76A/N111C/C289A mutant receptor (Rattus norvegicus, UniProt P25095, C289A/C76A/N111C).
T4 construct: expressed in transfected cells; host or cells: COS1
T4 sequence (P25095 1-359 C76A/N111C/C289A): T1 sequence (P25095 1-359 V108A) with C76A, A108V, N111C, C289A
Kind of assay: competition binding, C76A/N111C/C289A mutant. Conditions: for Kd ratio relative to WT (in parentheses): C76A/N111C/C289A / WT; for Kd: C76A/N111C/C289A, COS1 membranes, read-out: Binding affinity (Kd). As for the experimental part:
as §1

The target of assay [5] is T5, AT1 S109A mutant receptor (Rattus norvegicus, UniProt P25095, S109A).
T5 construct: expressed in transfected cells; host or cells: COS1
T5 sequence (P25095 1-359 S109A): T1 sequence (P25095 1-359 V108A) with A108V, S109A
The experiment in a line: competition binding, S109A mutant. Conditions: for Kd ratio relative to WT (in parentheses): S109A / WT; for Kd: S109A, COS1 membranes, read-out: Binding affinity (Kd). As for the experimental part: as §1

Assay [6] deals with T6, AT1 C76A/V116C/C289A mutant receptor (Rattus norvegicus, UniProt P25095, C289A/C76A/V116C).
T6 construct: expressed in transfected cells; host or cells: COS1 cells (membranes)
T6 sequence (P25095 1-359 C76A/V116C/C289A): T1 sequence (P25095 1-359 V108A) with C76A, A108V, V116C, C289A
The experiment in a line: competition binding, C76A/V116C/C289A mutant. Conditions: for Kd ratio relative to WT (in parentheses): C76A/V116C/C289A / WT; for Kd: C76A/V116C/C289A, COS1 membranes, read-out: Binding affinity (Kd). Here is the method: as §1

Residue numbers refer to the chain shown, from its start.

For the compound `CCCc1nc(C(C)(C)O)c(C(=O)O)n1Cc1ccc(-c2ccccc2-c2nnn[nH]2)cc1` [Olmesartan, olmesartan, reference compound], the “Kd ratio relative to WT (in parentheses)” value in assay [1] is 2.1 fold; in assay [2] (WT / WT), 1.0 fold; in assay [3], 2.4 fold; in assay [4] it was 5.2 fold; in assay [5], 1.1 fold; in assay [6] it was 2.7 fold. In addition, the Kd (commonly the free concentration of one partner at which half of the binding sites on the other are occupied at equilibrium, for simple one-to-one binding) in assay [1] was 4.8 ± 2 nM; in assay [2], 2.3 ± 0.8 nM; in assay [3], 5.5 ± 2.6 nM; in assay [4] it was 12 ± 4 nM; in assay [5], 2.5 ± 0.8 nM; in assay [6] it was 6.2 ± 1.7 nM. Besides, the “Kd ratio relative to olmesartan (in parentheses)” value in assay [2] worked out at 1.0 fold.
With `CCCc1nc(C(C)(C)O)c(C(N)=O)n1Cc1ccc(-c2ccccc2-c2nnn[nH]2)cc1` [R239470], the “Kd ratio relative to WT (in parentheses)” value was found to be 2.0 fold in assay [1]; 2.0 fold in assay [3]; 6.8 fold in assay [4]; 1.1 fold in assay [5]; 3.1 fold in assay [6]. In addition, the Kd amounted to 1.6 ± 0.8 nM in assay [1]; 0.8 ± 0.3 nM in assay [2]; 1.6 ± 0.7 nM in assay [3]; 5.4 ± 3 nM in assay [4]; 0.9 ± 0.2 nM in assay [5]; 2.5 ± 1 nM in assay [6]. For the same compound, the “Kd ratio relative to olmesartan (in parentheses)” value in assay [2] worked out at 0.3 fold.
Consider `CCCc1nc(C(C)(C)O)c(C(N)=O)n1Cc1ccc(-c2cc(Cc3ccc(O)cc3)ccc2-c2nnn[nH]2)cc1` [R794847], for which the “Kd ratio relative to WT (in parentheses)” value in assay [1] worked out at 51 fold; in assay [3] it was 2.7 fold; in assay [4], 3.8 fold; in assay [5], 0.7 fold; in assay [6], 0.8 fold. Moreover, the Kd in assay [1] was determined as 2450 ± 1310 nM; in assay [2] it was 48 ± 12 nM; in assay [3], 128 ± 15 nM; in assay [4] it was 180 ± 94 nM; in assay [5], 34 ± 11 nM; in assay [6], 39 ± 3 nM.
